Experimental data reported in patent US20230330089A1, “COVID PREVENTION AND TREATMENT USING AN INTEGRIN INHIBITOR” (priority 2022, published 2023).

Tested on: SARS-CoV-2 pseudovirus variants
Format: cell-based

Row | SMILES | inhibition of D614G pseudovirus infection, single agent vs positive control | inhibition of Beta and Delta variant pseudovirus infection | inhibition of D614G pseudovirus infection | inhibition of D614G, Delta and Omicron pseudovirus infection | inhibition of Omicron and Delta pseudovirus infection compared with other variants | inhibition of infection by D614, D614G, N501Y, E484K, N+E, NEK, R685A pseudovirus variants
1 | CNS(=O)(=O)Nc1nccc(Cc2c(C)c3ccc(Oc4ncccn4)cc3oc2=O)c1F [VS-6766] | inhibited pseudovirus infection |  |  |  |  | 
2 | COc1ccc(S(=O)(=O)N[C@@H](CNc2nc(C)nc(N3CCC(c4ccc5c(n4)NCCC5)CC3)c2C)C(=O)O)cc1 [GLPG-0187] | inhibited pseudovirus infection | most significant decrease in pseudovirus infection by the Delta variant | inhibited pseudovirus infection in a dose-dependent manner | effectively blocked | more significantly than other variants | inhibition of viral infection of each variant
